Measurements as given in patent publication US20220026411A1, “ANALYTICAL METHODS AND ARRAYS FOR USE IN THE SAME” (SENZAGEN AB, priority 2019, published 2022).
Read-outs that look alike come from different tables or passages of the source.

Experiments:
SenzaCell [1] = experiment: GARDair assay: gene expression signature (GRPS, 28 genes) of chemically exposed DC-like cells, SVM classification; settings: finalized GARDair prediction model; RS if mean SVM decision value (n=3) > 0; 24 h exposure at GARD input concentration
Experimental: (§1) All exposures were performed in repeated triplicate experiments in a controlled setting, thus generating a coherent dataset with high statistical power optimized for subsequent biomarker discovery.
(§2) A prediction model was trained and frozen, based on a Support Vector Machine (SVM), using the samples of the training data set with a binary “function in study” (respiratory sensitizer/non-respiratory sensitizer) as the dependent variable, and the gene expression values of the GRPS as the independent variables (i.e. predictors), see also Table 4.
(§3) Having established an optimized prediction model and associated protocols, the assay was challenged with two sets of external samples, referred to as test data sets.
(§4) The human myeloid leukemia-derived cell line SenzaCell (available through ATCC), acting as an in vitro model of human Dendritic Cell (DC), is maintained in a-MEM (Thermo Scientific Hyclone, Logan, Utah) supplemented with 20% (volume/volume) fetal calf serum (Life Technologies, Carlsbad, Calif.) and 40 ng/ml recombinant human Granulocyte Macrophage Colony Stimulating Factor (rhGM-CSF) (Miltenyi Biotec, Germany). A media change during expansion is performed every 3-4 days. Working stocks of cultures are grown for a maximum of 16 passages or two months after thawing. For chemical stimulation of cells, exposed cells are incubated for 24 h at 37° C., 5% CO2 and 95% humidity.
(§5) Some Test Substances were poorly dissolved in cell media; therefore, the maximum soluble concentration was assessed as well. The Test Substance that was to be tested was titrated to concentrations ranging from 1 μM to the maximum soluble concentration in cell media. For freely soluble Test Substances, 500 μM was set as the upper limit of the titration range. For Test Substances dissolved in DMSO, the in-well concentration of DMSO was 0.1%. After incubation for 24 h at 37° C., 5% CO2 and 95% humidity, harvested cells were stained with the viability marker Propidium Iodide (PI) (BD Bioscience, USA) and analyzed by flow cytometry. PI-negative cells were defined as viable, and the relative viability of cells stimulated with each concentration in the titration range was calculated as
(§6) For non-toxic Test Substances, a concentration of 500 μM was used if possible. For non-toxic Test Substances that were insoluble at 500 μM in cell media, the highest soluble concentration was used. Whichever of these three criteria was met, only one concentration will be used for gene expression analysis. The concentration to be used for any given chemical was termed the ‘GARD input concentration’.
(§7) Once the GARD input concentration for Test Substances to be assayed was established, the cells were stimulated again as described above, this time only using the GARD input concentration. All assessments of Test Substances and Benchmark Controls were assayed in biological triplicates, performed at different time-points and using different cell cultures. After incubation for 24 h at 37° C., 5% CO2 and 95% humidity, cell culture was lysed in TRlzol reagent (Life Technologies) and stored at −20° C. until RNA was extracted. In parallel, a small sample of stimulated cells was taken for PI staining and analysis with flow cytometry, to ensure the expected relative viability of stimulated cells was reached.

[2] = cited from earlier work; for True group: true group belonging of external test chemicals; for Function in study: training data set, as defined by available literature and expert consensus
SenzaCell [3] = test system: SenzaCell
Experimental: as §1, §2, §3, §4, §5, §6, §7

Prediction Test set 1 (SenzaCell [1])	Structure (SMILES)	True group [2]	further results
	Oc1ccccc1 [Phenol]		Prediction Test set 1 (SenzaCell [3]): NRS
	Clc1ccccc1 [chlorobenzene]		Prediction Test set 2 (SenzaCell [1]): NRS
	CCCCCCC(C=O)=Cc1ccccc1 [hexylcinnamic aldehyde]		Function in study [2]: SS/NRS
	CC1(C)S[C@@H]2[C@H](NC(=O)Cc3ccccc3)C(=O)N2[C@H]1C(=O)O [penicillin G]		Function in study [2]: SS/NRS
	Sc1nc2ccccc2s1 [2-Mercaptobenzothiazole]	NRS	
NRS	O=C(O)c1ccc(O)cc1 [4-Hydroxybenzoic acid]	NRS	
	O=C(O)c1ccccc1O [Salicylic acid]	NRS	
NRS	C=CCc1ccc(O)c(OC)c1 [Eugenol]	NRS	
NRS	CCCCCCCC(=O)O [Octanoic acid]	NRS	
	Nc1ccccc1O [2-aminophenol]		Function in study [2]: SS/NRS
	C[S+](C)[O-] [DMSO]	NRS	Prediction Test set 2 (SenzaCell [1]): NRS
NRS	Oc1cccc(O)c1 [Resorcinol]		
	[K+].[K+].[O]=[Cr](=[O])([O-])[O][Cr](=[O])(=[O])[O-] [potassium dichromate]		Function in study [2]: SS/NRS
NRS	CC=Cc1ccc(O)c(OC)c1 [Isoeugenol]	NRS	
NRS	OCC(O)CO [Glycerol]		
NRS	OCC=Cc1ccccc1 [Cinnamyl alcohol]	NRS	

Structure (SMILES)	Prediction Test set 1 (SenzaCell [1])	True group [2]	further results
Nc1ccc(N)cc1 [PPD]	NRS	NRS	Prediction Test set 2 (SenzaCell [1]): NRS
O=Cc1ccccc1 [Benzaldehyde]	NRS		
CCCCCCCCCCCCOS(=O)(=O)[O-].[Na+] [SDS]	NRS	NRS	
O=[N+]([O-])c1ccc(Cl)c([N+](=O)[O-])c1 [DNCB]	NRS	NRS	Prediction Test set 2 (SenzaCell [1]): NRS
CCOC(=O)c1ccccc1C(=O)OCC [Diethyl phthalate]	NRS	NRS	
